A short description of this series: Biological stability of VIP in follicular fluid (ELISA, during defrosting). As to conditions: human follicular fluid samples from IVF patients, stored at -80°C, measured during defrosting process; read-out sandwich ELISA (450 nm); p<0.05; Supplementary Figure 1. It is filed as in vitro ADME. The procedure:
FF was obtained after oocyte retrieval during IVF according to the following procedure. The follicular fluid aspirated from each patient was pooled in conical bottomed 15 ml polypropylene tubes and centrifugated at 1000 g for 3 minutes at 21°C. The supernatant was collected, transported to the laboratory and stored at -80°C until further analysis.
The enzyme-linked immunosorbent assay (ELISA) used to quantify VIP in follicular samples was based on the principle of sandwich enzyme immunoassay. The quantification was performed following manufacturer’s protocol of ELISA kit (ELK Biotechnology CO., Ltd). Briefly, the microtiter plate provided has been pre-coated with an antibody specific for VIP. 100 μL of standards and samples were added to the appropriate microtiter plate wells and incubated for 80 minutes at 37°C. After the wash, 100 μl/well of biotin-conjugated antibody solution was added and incubated for 50 minutes at 37°C. […] Next, a final wash was performed and 90 μL of 5-5’-tetramethylbenzidine (TMB) substrate solution was added and the color development was monitored and quantified after the addition of sulfuric acid solution. The absorbance was measured spectrophotometrically at 450 nm by using microplate spectrophotometer (Labsystem Multiskan MS). […] The concentration of VIP in the samples was determined by comparing the optical density of the samples to the standard curve. […]
Background: ELISA stands for enzyme-linked immunosorbent assay.

In the case of `CC[C@H](C)[C@H](NC(=O)[C@H](CO)NC(=O)[C@H](CC(N)=O)NC(=O)[C@H](CC(C)C)NC(=O)[C@H](Cc1ccc(O)cc1)NC(=O)[C@H](CCCCN)NC(=O)[C@H](CCCCN)NC(=O)[C@@H](NC(=O)[C@H](C)NC(=O)[C@H](CCSC)NC(=O)[C@H](CCC(N)=O)NC(=O)[C@H](CCCCN)NC(=O)[C@H](CCCN=C(N)N)NC(=O)[C@H](CC(C)C)NC(=O)[C@H](CCCN=C(N)N)NC(=O)[C@@H](NC(=O)[C@H](Cc1ccc(O)cc1)NC(=O)[C@H](CC(N)=O)NC(=O)[C@H](CC(=O)O)NC(=O)[C@@H](NC(=O)[C@H](Cc1ccccc1)NC(=O)[C@@H](NC(=O)[C@H](C)NC(=O)[C@H](CC(=O)O)NC(=O)[C@H](CO)NC(=O)[C@@H](N)Cc1c[nH]cn1)C(C)C)[C@@H](C)O)[C@@H](C)O)C(C)C)C(=O)N[C@@H](CC(C)C)C(=O)N[C@@H](CC(N)=O)C(N)=O` [VIP, Vasoactive intestinal peptide], the “VIP concentration in follicular fluid over time (biological stability)” value was “significant reduction”.

The values above are taken from article PMC11106456, “Increased Vasoactive Intestinal Peptide (VIP) in polycystic ovary syndrome patients undergoing IVF” (Frontiers in Endocrinology, 2024).
